Target: Beta-3 Adrenergic Receptor (Homo sapiens (Human), UniProt P13945)
Assay: Homogeneous Time-Resolved Fluorescence (HTRF) cAMP antagonist assay, IC50 determination
Assay type: cell-based
Settings: CHO-K1 cells stably expressing recombinant receptor, isoproterenol at EC90
In short: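 CHO-K1 cells stably expressing receptor, 1500 cells/well, preincubated briefly with 10-point 5-fold compound series (top final typically 10 or 100 μM) in PBS with 1 mM IBMX, then challenged with isoproterenol at EC90 for 1 h at room temperature. cAMP read by HTRF against on-plate standard curve; IC50 from dose-response.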

Beta-3 Adrenergic Receptor, sequence (P13945 whole entry, species assumed): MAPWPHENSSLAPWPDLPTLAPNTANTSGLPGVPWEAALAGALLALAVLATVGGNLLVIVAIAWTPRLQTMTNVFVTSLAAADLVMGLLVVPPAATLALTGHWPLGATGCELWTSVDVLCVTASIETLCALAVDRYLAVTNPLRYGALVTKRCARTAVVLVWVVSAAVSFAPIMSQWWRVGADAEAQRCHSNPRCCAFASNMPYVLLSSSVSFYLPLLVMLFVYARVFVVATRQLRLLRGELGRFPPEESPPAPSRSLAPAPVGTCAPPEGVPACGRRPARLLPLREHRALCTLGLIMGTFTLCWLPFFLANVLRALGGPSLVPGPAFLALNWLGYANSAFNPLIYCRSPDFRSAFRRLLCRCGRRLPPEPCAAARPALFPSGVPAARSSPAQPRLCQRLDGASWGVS

| IC50 [nM] | Compound |
| --- | --- |
| 31.2 | CNS(=O)(=O)c1cccc(OC[C@@H](O)CNC2COC3(CCN(S(=O)(=O)c4cc(-c5ccc(CN)cc5)cc(C(F)(F)F)c4)CC3)C2)c1 (stereo partly drawn) [Compound 367, 3-((2S)-3-(8-(4′-(aminomethyl)-5-(trifluoromethyl)biphenyl-3-ylsulfonyl)-1-oxa-8-azaspiro[4.5]decan-3-ylamino)-2-hydroxypropoxy)-N-methylbenzenesulfonamide] |
| 35.2 | CNS(=O)(=O)c1cccc(OC[C@@H](O)CNC2COC3(CCN(S(=O)(=O)c4cccc(-c5ccc(C(N)=O)cc5)c4)CC3)C2)c1 (stereo partly drawn) [Compound 368, 3′-(3-((S)-2-hydroxy-3-(3-(N-methylsulfamoyl)phenoxy)propylamino)-1-oxa-8-azaspiro[4.5]decan-8-ylsulfonyl)biphenyl-4-carboxamide] |
| 14.6 | CNS(=O)(=O)c1cccc(OC[C@@H](O)CNC2COC3(CCN(S(=O)(=O)c4cccc(-c5ccc(CN)s5)c4)CC3)C2)c1 (stereo partly drawn) [Compound 369, 3-((2S)-3-(8-(3-(5-(aminomethyl)thiophen-2-yl)phenylsulfonyl)-1-oxa-8-azaspiro[4.5]decan-3-ylamino)-2-hydroxypropoxy)-N-methylbenzenesulfonamide] |
| 47.8 | CNS(=O)(=O)c1cccc(OC[C@@H](O)CNC2COC3(CCN(S(=O)(=O)c4cccc(-c5cncc(C#N)c5)c4)CC3)C2)c1 (stereo partly drawn) [Compound 370, 3-((2S)-3-(8-(3-(5-cyanopyridin-3-yl)phenylsulfonyl)-1-oxa-8-azaspiro[4.5]decan-3-ylamino)-2-hydroxypropoxy)-N-methylbenzenesulfonamide] |
| 42 | CNS(=O)(=O)c1cccc(OC[C@@H](O)CNC2COC3(CCN(S(=O)(=O)c4cccc(-c5ccc(NCCN6CCOCC6)nc5)c4)CC3)C2)c1 (stereo partly drawn) [Compound 371, 3-((2S)-2-hydroxy-3-(8-(3-(6-(2-morpholinoethylamino)pyridin-3-yl)phenylsulfonyl)-1-oxa-8-azaspiro[4.5]decan-3-ylamino)propoxy)-N-methylbenzenesulfonamide] |
| 41.8 | CNS(=O)(=O)c1cccc(OC[C@@H](O)CNC2COC3(CCN(S(=O)(=O)c4cccc(-c5ccc(OCCCN(C)C)nc5)c4)CC3)C2)c1 (stereo partly drawn) [Compound 372, 3-((2S)-3-(8-(3-(6-(3-(dimethylamino)propoxy)pyridin-3-yl)phenylsulfonyl)-1-oxa-8-azaspiro[4.5]decan-3-ylamino)-2-hydroxypropoxy)-N-methylbenzenesulfonamide] |
| 24.4 | CNS(=O)(=O)c1cccc(OC[C@@H](O)CNC2COC3(CCN(S(=O)(=O)c4cc(C)cc(-c5ccc(CN)cc5)c4)CC3)C2)c1 (stereo partly drawn) [Compound 373, 3-((2S)-3-(8-(4′-(aminomethyl)-5-methylbiphenyl-3-ylsulfonyl)-1-oxa-8-azaspiro[4.5]decan-3-ylamino)-2-hydroxypropoxy)-N-methylbenzenesulfonamide] |
| 15.7 | CNS(=O)(=O)c1cccc(OC[C@@H](O)CN[C@@H]2COC3(CCN(S(=O)(=O)c4cncc(-c5ccc(CN)cc5)c4)CC3)C2)c1 [Compound 374, 3-((S)-3-((S)-8-(5-(4-(aminomethyl)phenyl)pyridin-3-ylsulfonyl)-1-oxa-8-azaspiro[4.5]decan-3-ylamino)-2-hydroxypropoxy)-N-methylbenzenesulfonamide] |
| 25.4 | CNS(=O)(=O)c1cccc(OC[C@@H](O)CN[C@H]2COC3(CCN(S(=O)(=O)c4cncc(-c5ccc(CN)cc5)c4)CC3)C2)c1 [Compound 375] |
| 499 | CNS(=O)(=O)c1cccc(OC[C@@H](O)CNC2COC3(CCN(S(=O)(=O)c4ccc(C)c(-c5ccc(CN)cc5)c4)CC3)C2)c1 (stereo partly drawn) [Compound 376, 3-((2S)-3-(8-(4′-(aminomethyl)-6-methylbiphenyl-3-ylsulfonyl)-1-oxa-8-azaspiro[4.5]decan-3-ylamino)-2-hydroxypropoxy)-N-methylbenzenesulfonamide] |
| 18.9 | CNS(=O)(=O)c1cccc(OC[C@@H](O)CNC2COC3(CCN(S(=O)(=O)c4cc(-c5ccc(CN)cc5)ccc4Cl)CC3)C2)c1 (stereo partly drawn) [Compound 377, 3-((2S)-3-(8-(4′-(aminomethyl)-4-chlorobiphenyl-3-ylsulfonyl)-1-oxa-8-azaspiro[4.5]decan-3-ylamino)-2-hydroxypropoxy)-N-methylbenzenesulfonamide] |
| 131 | CNS(=O)(=O)c1cccc(OC[C@@H](O)CNC2COC3(CCN(S(=O)(=O)CCc4ccncc4)CC3)C2)c1 (stereo partly drawn) [Compound 378, 3-((2S)-2-hydroxy-3-(8-(2-(pyridin-4-yl)ethylsulfonyl)-1-oxa-8-azaspiro[4.5]decan-3-ylamino)propoxy)-N-methylbenzenesulfonamide] |
| 11.1 | CNS(=O)(=O)c1cccc(OC[C@@H](O)CNC2COC3(CCN(S(=O)(=O)c4cccc(-c5ccc(/C(N)=N/O)cc5)c4)CC3)C2)c1 (stereo partly drawn) [Compound 379, (Z)-N′-hydroxy-3′-(3-((S)-2-hydroxy-3-(3-(N-methylsulfamoyl)phenoxy)propylamino)-1-oxa-8-azaspiro[4.5]decan-8-ylsulfonyl)biphenyl-4-carboximidamide] |
| 102 | CNS(=O)(=O)c1cccc(OC[C@@H](O)CNC2COC3(CCN(S(=O)(=O)c4cccc(-c5ccc(-c6noc(C)n6)cc5)c4)CC3)C2)c1 (stereo partly drawn) [Compound 380, 3-((2S)-2-hydroxy-3-(8-(4′-(5-methyl-1,2,4-oxadiazol-3-yl)biphenyl-3-ylsulfonyl)-1-oxa-8-azaspiro[4.5]decan-3-ylamino)propoxy)-N-methylbenzenesulfonamide] |
| 357 | CNS(=O)(=O)c1cccc(OC[C@@H](O)CNC2COC3(CCN(S(=O)(=O)c4ccccc4-c4ccc(CN)cc4)CC3)C2)c1 (stereo partly drawn) [Compound 381, 3-((2S)-3-(8-(4′-(aminomethyl)biphenyl-2-ylsulfonyl)-1-oxa-8-azaspiro[4.5]decan-3-ylamino)-2-hydroxypropoxy)-N-methylbenzenesulfonamide] |
| 21 | CNS(=O)(=O)c1cccc(OC[C@@H](O)CNC2COC3(CCN(S(=O)(=O)c4ccc(-c5ccc(CN)cc5)cc4)CC3)C2)c1 (stereo partly drawn) [Compound 382, 3-((2S)-3-(8-(4′-(aminomethyl)biphenyl-4-ylsulfonyl)-1-oxa-8-azaspiro[4.5]decan-3-ylamino)-2-hydroxypropoxy)-N-methylbenzenesulfonamide] |
| 21.8 | CNS(=O)(=O)c1cccc(OC[C@@H](O)CNC2COC3(CCN(S(=O)(=O)c4cccc(-c5ccc(C(=N)N)cc5)c4)CC3)C2)c1 (stereo partly drawn) [Compound 383, 3′-(3-((S)-2-hydroxy-3-(3-(N-methylsulfamoyl)phenoxy)propylamino)-1-oxa-8-azaspiro[4.5]decan-8-ylsulfonyl)biphenyl-4-carboximidamide] |
| 11 | CNS(=O)(=O)c1cccc(OC[C@@H](O)CN[C@@H]2COC3(CCN(S(=O)(=O)c4cc(-c5ccc(CN)cc5)ccc4OC)CC3)C2)c1 [Compound 384, 3-((S)-3-((S)-8-(4′-(aminomethyl)-4-methoxybiphenyl-3-ylsulfonyl)-1-oxa-8-azaspiro[4.5]decan-3-ylamino)-2-hydroxypropoxy)-N-methylbenzenesulfonamide] |
| 11 | CNS(=O)(=O)c1cccc(OC[C@@H](O)CN[C@H]2COC3(CCN(S(=O)(=O)c4cc(-c5ccc(CN)cc5)ccc4OC)CC3)C2)c1 [Compound 385, 3-((S)-3-((R)-8-(4′-(aminomethyl)-4-methoxybiphenyl-3-ylsulfonyl)-1-oxa-8-azaspiro[4.5]decan-3-ylamino)-2-hydroxypropoxy)-N-methylbenzenesulfonamide] |
| 57.9 | CNS(=O)(=O)c1cccc(OC[C@@H](O)CNC2COC3(CCN(S(=O)(=O)c4cncc(OC)c4)CC3)C2)c1 (stereo partly drawn) [Compound 386, 3-((2S)-2-hydroxy-3-(8-(5-methoxypyridin-3-ylsulfonyl)-1-oxa-8-azaspiro[4.5]decan-3-ylamino)propoxy)-N-methylbenzenesulfonamide] |
| 30.8 | CNS(=O)(=O)c1cccc(OC[C@@H](O)CNC2COC3(CCN(S(=O)(=O)c4cccc(-c5ccc(CN)nc5)c4)CC3)C2)c1 (stereo partly drawn) [Compound 387, 3-((2S)-3-(8-(3-(6-(aminomethyl)pyridin-3-yl)phenylsulfonyl)-1-oxa-8-azaspiro[4.5]decan-3-ylamino)-2-hydroxypropoxy)-N-methylbenzenesulfonamide] |
| 79.4 | CNS(=O)(=O)c1cccc(OC[C@@H](O)CNC2COC3(CCN(S(=O)(=O)c4cncc(-c5ccc(CN)nc5)c4)CC3)C2)c1 (stereo partly drawn) [Compound 388, 3-((2S)-3-(8-(6′-(aminomethyl)-3,3′-bipyridin-5-ylsulfonyl)-1-oxa-8-azaspiro[4.5]decan-3-ylamino)-2-hydroxypropoxy)-N-methylbenzenesulfonamide] |
| 475 | CNS(=O)(=O)c1cccc(OC[C@@H](O)CNC2COC3(CCN(S(=O)(=O)c4cccc(CN)c4)CC3)C2)c1 (stereo partly drawn) [Compound 389, 3-((2S)-3-(8-(3-(aminomethyl)phenylsulfonyl)-1-oxa-8-azaspiro[4.5]decan-3-ylamino)-2-hydroxypropoxy)-N-methylbenzenesulfonamide] |
| 153 | CNS(=O)(=O)c1cccc(OC[C@@H](O)CNC2COC3(CCN(S(=O)(=O)c4cccc(CO)c4)CC3)C2)c1 (stereo partly drawn) [Compound 390, 3-((2S)-2-hydroxy-3-(8-(3-(hydroxymethyl)phenylsulfonyl)-1-oxa-8-azaspiro[4.5]decan-3-ylamino)propoxy)-N-methylbenzenesulfonamide] |
| 446 | CNS(=O)(=O)c1cccc(OC[C@@H](O)CNC2COC3(CCN(S(=O)(=O)c4ccc(CN)cc4)CC3)C2)c1 (stereo partly drawn) [Compound 391, 3-((2S)-3-(8-(4-(aminomethyl)phenylsulfonyl)-1-oxa-8-azaspiro[4.5]decan-3-ylamino)-2-hydroxypropoxy)-N-methylbenzenesulfonamide] |
| 168 | CNS(=O)(=O)c1cccc(OC[C@@H](O)CNC2COC3(CCN(S(=O)(=O)c4ccc(CO)cc4)CC3)C2)c1 (stereo partly drawn) [Compound 392, 3-((2S)-2-hydroxy-3-(8-(4-(hydroxymethyl)phenylsulfonyl)-1-oxa-8-azaspiro[4.5]decan-3-ylamino)propoxy)-N-methylbenzenesulfonamide] |
